Results reported in ChEMBL document CHEMBL1201862, “PubChem BioAssay data set” (2004).
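Tested at 5 concentrations; 48 h exposure; 96-well plates; endpoints linearly interpolated, else capped at highest concentration. GI50 marks 50% less growth.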 Active and inactive are the calls of the source. Cut-off read from the data, not from the text of the source: active = GI50 up to about 1.1 µM and inactive = higher. Residues, ends and D or L forms follow the SMILES beside them. *: point of attachment. Cbz = O=C(OCc1ccccc1)*

How the values were obtained:
Experiment in all cases: growth of human tumour cells (NCI), 48 h
MOLT-4 = system: MOLT-4
SK-OV-3 = system: SK-OV-3
M14 = system: M14
CCRF-CEM = system: CCRF-CEM
UO-31 = system: UO-31
OVCAR-8 = system: OVCAR-8
SR = system: SR
ACHN = system: ACHN
786-0 = system: 786-0
EKVX = system: EKVX
HT-29 = system: HT-29
SF-268 = system: SF-268
RPMI-8226 = system: RPMI-8226
HOP-92 = system: HOP-92
HCT-15 = system: HCT-15
SW-620 = system: SW-620
HCT-116 = system: HCT-116
OVCAR-4 = system: OVCAR-4
SK-MEL-5 = system: SK-MEL-5
HCC 2998 = system: HCC 2998

Row | Structure (SMILES) | GI50 (MOLT-4) | GI50 (SK-OV-3) | GI50 (M14) | GI50 (CCRF-CEM) | GI50 (UO-31) | GI50 (OVCAR-8) | GI50 (SR) | GI50 (ACHN) | GI50 (786-0) | GI50 (EKVX) | GI50 (HT-29) | GI50 (SF-268) | GI50 (RPMI-8226) | GI50 (HOP-92) | GI50 (HCT-15) | GI50 (SW-620) | GI50 (HCT-116) | GI50 (OVCAR-4) | GI50 (SK-MEL-5) | GI50 (HCC 2998)
1 | COC(=O)C(=O)C(C(=O)C(=O)Nc1ccc([N+](=O)[O-])cc1C#N)c1nc2ccc([N+](=O)[O-])cc2nc1O (stereo unspecified) | > 100 µM (inactive) | > 100 µM (inactive) | > 100 µM (inactive) | > 100 µM (inactive) | > 100 µM (inactive) | > 100 µM (inactive) | 96.8 µM (inactive) | > 100 µM (inactive) | > 100 µM (inactive) | 35.6 µM (inactive) | > 100 µM (inactive) | > 100 µM (inactive) | > 100 µM (inactive) | 93.1 µM (inactive) | > 100 µM | > 100 µM (inactive) | > 100 µM (inactive) | > 100 µM (inactive) | – | –
2 | COc1ccc(/N=C(/[N-]n2c(=O)c(C)nn(C)c2=S)N(c2ccc(OC)cc2)c2n[n+]3c(=O)c(C)nn(C)c3s2)cc1 | > 100 µM (inactive) | – | > 100 µM (inactive) | > 100 µM (inactive) | – | > 100 µM (inactive) | > 100 µM (inactive) | > 100 µM (inactive) | > 100 µM (inactive) | > 100 µM (inactive) | > 100 µM (inactive) | > 100 µM (inactive) | > 100 µM (inactive) | > 100 µM (inactive) | > 100 µM | > 100 µM (inactive) | > 100 µM (inactive) | > 100 µM (inactive) | > 100 µM (inactive) | –
3 | COc1ncc(C=C(C#N)C#N)c(OC)n1 | 33.3 µM (inactive) | > 100 µM (inactive) | 18.7 µM (inactive) | 7.48 µM (inactive) | 21.1 µM (inactive) | 24.2 µM (inactive) | 15.3 µM (inactive) | 48.5 µM (inactive) | 19.3 µM (inactive) | 79.8 µM (inactive) | 40 µM (inactive) | 61.8 µM (inactive) | 24 µM (inactive) | > 100 µM (inactive) | 29.9 µM | 26.2 µM (inactive) | 26.1 µM (inactive) | 48.9 µM (inactive) | 29.3 µM (inactive) | –
4 | CCN(CC)CCNc1c(OC)cc(C)c2sc3ccccc3c(=O)c12 | 2.31 µM (inactive) | 13.9 µM (inactive) | 3.71 µM (inactive) | – | 6.32 µM (inactive) | 7.82 µM (inactive) | 3.15 µM (inactive) | 4.46 µM (inactive) | 7.53 µM (inactive) | 16.8 µM (inactive) | 2.61 µM (inactive) | 11 µM (inactive) | 1.3 µM (inactive) | 16.9 µM (inactive) | 4.06 µM | 5.35 µM (inactive) | 4.66 µM (inactive) | 5.3 µM (inactive) | 1.91 µM (inactive) | –
5 | COc1c(C)c(OC)c2c(c1O)[C@@H]1[C@@H]3Cc4c(OC)c(C)c(OC)c(O)c4[C@H](CNC(=O)c4ccc5ccccc5n4)N3[C@@H](C#N)[C@H](C2)N1C | 0.00016 µM (active) | – | 0.000659 µM (active) | – | 0.00227 µM (active) | 0.00181 µM (active) | 0.000105 µM (active) | 0.00199 µM (active) | 0.000494 µM (active) | 0.000232 µM (active) | 0.000893 µM (active) | 0.000883 µM (active) | 0.000324 µM (active) | 0.000363 µM (active) | 0.0101 µM | 0.00033 µM (active) | 0.000491 µM (active) | 0.00217 µM (active) | 0.000495 µM (active) | 0.00014 µM (active)
6 | Cc1cc(NS(=O)(=O)c2ccc(Nc3c4ccccc4nc4c(C(=O)N5CCN(CCO)CC5)cccc34)cc2)no1 | 83.2 µM (inactive) | > 100 µM (inactive) | > 100 µM (inactive) | 43.9 µM (inactive) | > 100 µM (inactive) | > 100 µM (inactive) | 66.5 µM (inactive) | > 100 µM (inactive) | > 100 µM (inactive) | > 100 µM (inactive) | > 100 µM (inactive) | > 100 µM (inactive) | – | > 100 µM (inactive) | > 100 µM | > 100 µM (inactive) | > 100 µM (inactive) | > 100 µM (inactive) | > 100 µM (inactive) | 49 µM (inactive)
7 | O=C(O)c1cccc(/N=N/c2c(S(=O)(=O)O)ccc3c2C(=O)c2ccccc2C3=O)c1O | > 100 µM (inactive) | > 100 µM (inactive) | > 100 µM (inactive) | > 100 µM (inactive) | > 100 µM (inactive) | > 100 µM (inactive) | > 100 µM (inactive) | > 100 µM (inactive) | > 100 µM (inactive) | > 100 µM (inactive) | > 100 µM (inactive) | > 100 µM (inactive) | > 100 µM (inactive) | > 100 µM (inactive) | > 100 µM | > 100 µM (inactive) | > 100 µM (inactive) | > 100 µM (inactive) | > 100 µM (inactive) | –
8 | CCOC(=O)C/C(N)=C(\C#N)C(=O)OCC | > 100 µM (inactive) | > 100 µM (inactive) | > 100 µM (inactive) | > 100 µM (inactive) | > 100 µM (inactive) | > 100 µM (inactive) | > 100 µM (inactive) | > 100 µM (inactive) | > 100 µM (inactive) | > 100 µM (inactive) | > 100 µM (inactive) | > 100 µM (inactive) | > 100 µM (inactive) | > 100 µM (inactive) | > 100 µM | > 100 µM (inactive) | > 100 µM (inactive) | – | > 100 µM (inactive) | –
9 | COc1ccc(C)cc(O)c1=O | 9.06 µM (inactive) | > 100 µM (inactive) | 21.2 µM (inactive) | 10.7 µM (inactive) | 27.4 µM (inactive) | – | 5.28 µM (inactive) | 22.8 µM (inactive) | 10.5 µM (inactive) | 38.8 µM (inactive) | 44 µM (inactive) | 28.6 µM (inactive) | 39.6 µM (inactive) | 26.2 µM (inactive) | > 100 µM | 44 µM (inactive) | 33.7 µM (inactive) | 45 µM (inactive) | 67.8 µM (inactive) | –
10 | COC(=O)c1cc(C)n2c1CS[C@@H]2c1ccccc1 | 22.5 µM (inactive) | 46 µM (inactive) | 24.9 µM (inactive) | 41.4 µM (inactive) | 28.4 µM (inactive) | 44.4 µM (inactive) | 17.3 µM (inactive) | 58.7 µM (inactive) | 50.6 µM (inactive) | 32.2 µM (inactive) | 31.2 µM (inactive) | 50.6 µM (inactive) | 28.2 µM (inactive) | 22.4 µM (inactive) | 27.5 µM | 44.6 µM (inactive) | 33.7 µM (inactive) | 36.8 µM (inactive) | 19.8 µM (inactive) | –
11 | CCOC(=O)C(C(N)=O)C1=Nc2cc([N+](=O)[O-])ccc2N/C1=C\C(=O)c1ccccc1 (stereo unspecified) | – | 14.1 µM (inactive) | 14.7 µM (inactive) | – | 19.5 µM (inactive) | 16.4 µM (inactive) | 3.3 µM (inactive) | 15.3 µM (inactive) | 11.4 µM (inactive) | 20.6 µM (inactive) | 16.5 µM (inactive) | 12.7 µM (inactive) | 11.1 µM (inactive) | 15.4 µM (inactive) | 12.6 µM | 15.6 µM (inactive) | 15 µM (inactive) | 18.7 µM (inactive) | 16.7 µM (inactive) | 10.1 µM (inactive)
12 | COc1nc(N)nc2c1ncn2C1CC(O)C(CO)O1 (stereo unspecified) | > 100 µM (inactive) | > 100 µM (inactive) | > 100 µM (inactive) | > 100 µM (inactive) | > 100 µM (inactive) | > 100 µM (inactive) | > 100 µM (inactive) | > 100 µM (inactive) | > 100 µM (inactive) | > 100 µM (inactive) | > 100 µM (inactive) | > 100 µM (inactive) | > 100 µM (inactive) | > 100 µM (inactive) | > 100 µM | > 100 µM (inactive) | > 100 µM (inactive) | > 100 µM (inactive) | > 100 µM (inactive) | –
13 | COc1cccc(-c2ccc3c4c2O[C@H]2c5[nH]c6ccccc6c5C[C@@]5(O)[C@@H](C3)N(CC3CC3)CC[C@]425)c1 | 0.82 µM (active) | – | 1.81 µM (inactive) | 3.29 µM (inactive) | 1.72 µM (inactive) | 1.65 µM (inactive) | 1.76 µM (inactive) | 1.63 µM (inactive) | 1.7 µM (inactive) | 3.86 µM (inactive) | 1.7 µM (inactive) | 1.61 µM (inactive) | 2.18 µM (inactive) | 1.37 µM (inactive) | 1.84 µM | 1.93 µM (inactive) | 1.63 µM (inactive) | 1.71 µM (inactive) | 1.94 µM (inactive) | 1.53 µM (inactive)
14 | O=S(=O)(O)c1cccc2c(/N=N/c3c(O)ccc4ccccc34)cccc12 | > 100 µM (inactive) | > 100 µM (inactive) | > 100 µM (inactive) | > 100 µM (inactive) | > 100 µM (inactive) | > 100 µM (inactive) | > 100 µM (inactive) | > 100 µM (inactive) | > 100 µM (inactive) | > 100 µM (inactive) | > 100 µM (inactive) | > 100 µM (inactive) | > 100 µM (inactive) | > 100 µM (inactive) | > 100 µM | > 100 µM (inactive) | > 100 µM (inactive) | > 100 µM (inactive) | 46.2 µM (inactive) | –
15 | CC(NC(=O)C(NC(=O)OCc1ccccc1)C(C)C)C(=O)NCC(=O)O (stereo not drawn) (Cbz-Val-Ala-Gly-OH; configuration not given here) | > 100 µM (inactive) | > 100 µM (inactive) | > 100 µM (inactive) | – | > 100 µM (inactive) | > 100 µM (inactive) | > 100 µM (inactive) | > 100 µM (inactive) | > 100 µM (inactive) | > 100 µM (inactive) | > 100 µM (inactive) | > 100 µM (inactive) | > 100 µM (inactive) | > 100 µM (inactive) | > 100 µM | > 100 µM (inactive) | > 100 µM (inactive) | – | > 100 µM (inactive) | > 100 µM (inactive)
